Paper PMC8213057, “Targeting ALK2: An Open Science Approach to Developing Therapeutics for the Treatment of Diffuse Intrinsic Pontine Glioma” (Journal of Medicinal Chemistry, 2020)

Columns and labels:
NEK7 = NEK7 (Homo sapiens, UniProt Q8TDX7); details: 1 μM; Run 1, Run 2
ZAK/MLTK = ZAK/MLTK (Homo sapiens, UniProt Q9NYL2); assay: 375-member kinase panel; assay type: biochemical; details: Run 1, Run 2; for % enzyme activity: 1 μM; for remaining activity at 1 µM: read-out: % enzyme activity, 1 μM
Chain of ZAK/MLTK (Q9NYL2 whole entry): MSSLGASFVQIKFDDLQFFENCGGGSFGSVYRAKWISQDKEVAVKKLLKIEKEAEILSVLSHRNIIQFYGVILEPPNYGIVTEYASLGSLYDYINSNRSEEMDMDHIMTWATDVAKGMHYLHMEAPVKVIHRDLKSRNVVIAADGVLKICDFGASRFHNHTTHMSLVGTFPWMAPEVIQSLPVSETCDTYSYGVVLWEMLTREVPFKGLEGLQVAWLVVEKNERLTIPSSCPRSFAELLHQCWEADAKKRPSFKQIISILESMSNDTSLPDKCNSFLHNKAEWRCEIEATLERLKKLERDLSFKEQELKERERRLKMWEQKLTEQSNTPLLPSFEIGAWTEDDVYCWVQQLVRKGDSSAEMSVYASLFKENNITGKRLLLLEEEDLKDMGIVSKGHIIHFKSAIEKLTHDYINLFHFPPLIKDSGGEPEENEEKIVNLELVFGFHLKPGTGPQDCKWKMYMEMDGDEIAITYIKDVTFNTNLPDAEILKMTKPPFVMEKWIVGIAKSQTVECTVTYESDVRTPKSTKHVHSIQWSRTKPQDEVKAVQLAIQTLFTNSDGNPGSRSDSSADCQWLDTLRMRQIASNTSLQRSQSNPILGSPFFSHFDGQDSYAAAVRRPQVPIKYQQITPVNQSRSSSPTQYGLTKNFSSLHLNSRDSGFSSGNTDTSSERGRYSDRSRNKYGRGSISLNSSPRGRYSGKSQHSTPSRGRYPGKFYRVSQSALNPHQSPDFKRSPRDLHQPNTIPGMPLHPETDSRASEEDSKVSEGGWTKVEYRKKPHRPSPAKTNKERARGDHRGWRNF

ITK = biological target: T1, ITK (Homo sapiens, UniProt Q08881); assay: biochemical; details: read-out: % enzyme activity, 1 μM; Run 1, Run 2
T1 sequence (Q08881 1-620): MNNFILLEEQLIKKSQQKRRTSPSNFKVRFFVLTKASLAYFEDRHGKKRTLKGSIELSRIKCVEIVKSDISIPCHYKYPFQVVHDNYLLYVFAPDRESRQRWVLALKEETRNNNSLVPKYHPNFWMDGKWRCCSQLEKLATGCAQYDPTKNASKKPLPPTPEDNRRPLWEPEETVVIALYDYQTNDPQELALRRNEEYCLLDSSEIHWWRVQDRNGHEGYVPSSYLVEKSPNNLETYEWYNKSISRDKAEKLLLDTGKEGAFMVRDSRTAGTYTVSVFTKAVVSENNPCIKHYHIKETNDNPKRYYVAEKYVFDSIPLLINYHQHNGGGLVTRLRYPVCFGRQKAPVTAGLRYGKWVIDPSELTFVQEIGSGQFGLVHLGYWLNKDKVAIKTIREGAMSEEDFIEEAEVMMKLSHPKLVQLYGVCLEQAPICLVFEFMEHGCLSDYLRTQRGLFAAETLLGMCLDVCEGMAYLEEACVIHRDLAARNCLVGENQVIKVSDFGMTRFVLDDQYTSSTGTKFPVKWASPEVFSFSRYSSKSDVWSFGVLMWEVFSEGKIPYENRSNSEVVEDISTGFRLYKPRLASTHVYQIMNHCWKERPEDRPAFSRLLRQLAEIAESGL

NEK9 = biological target: T2, NEK9 (Homo sapiens, UniProt Q8TD19); details: 1 μM; Run 1, Run 2
T2 sequence (Q8TD19 1-979): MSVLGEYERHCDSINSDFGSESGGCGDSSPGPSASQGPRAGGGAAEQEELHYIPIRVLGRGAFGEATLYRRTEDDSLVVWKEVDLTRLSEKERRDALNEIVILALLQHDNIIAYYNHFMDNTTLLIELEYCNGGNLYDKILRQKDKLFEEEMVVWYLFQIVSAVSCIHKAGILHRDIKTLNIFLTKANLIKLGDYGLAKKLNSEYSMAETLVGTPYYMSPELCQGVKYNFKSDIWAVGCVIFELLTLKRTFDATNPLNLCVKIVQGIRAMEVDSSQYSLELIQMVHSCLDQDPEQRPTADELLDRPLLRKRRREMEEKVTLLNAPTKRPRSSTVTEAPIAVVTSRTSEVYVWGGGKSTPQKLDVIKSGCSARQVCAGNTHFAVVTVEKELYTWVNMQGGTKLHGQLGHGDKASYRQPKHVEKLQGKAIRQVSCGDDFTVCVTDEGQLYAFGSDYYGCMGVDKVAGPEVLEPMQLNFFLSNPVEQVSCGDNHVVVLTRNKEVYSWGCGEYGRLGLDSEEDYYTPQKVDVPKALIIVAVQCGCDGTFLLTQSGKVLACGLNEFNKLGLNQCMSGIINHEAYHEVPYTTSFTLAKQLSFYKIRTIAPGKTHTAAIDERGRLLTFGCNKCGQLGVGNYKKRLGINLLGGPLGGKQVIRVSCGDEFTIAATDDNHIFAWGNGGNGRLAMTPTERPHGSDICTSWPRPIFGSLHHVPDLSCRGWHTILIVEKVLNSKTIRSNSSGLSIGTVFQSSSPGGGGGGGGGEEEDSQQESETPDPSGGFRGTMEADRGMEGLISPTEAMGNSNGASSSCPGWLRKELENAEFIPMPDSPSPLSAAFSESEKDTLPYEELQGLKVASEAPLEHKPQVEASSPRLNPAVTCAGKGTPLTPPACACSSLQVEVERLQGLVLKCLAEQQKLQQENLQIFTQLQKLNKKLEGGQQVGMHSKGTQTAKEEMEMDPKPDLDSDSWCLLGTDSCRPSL

WNK3 = WNK3 (Homo sapiens, UniProt Q9BYP7); details: 1 μM; Run 1, Run 2
Chain of WNK3 (Q9BYP7 whole entry, species assumed): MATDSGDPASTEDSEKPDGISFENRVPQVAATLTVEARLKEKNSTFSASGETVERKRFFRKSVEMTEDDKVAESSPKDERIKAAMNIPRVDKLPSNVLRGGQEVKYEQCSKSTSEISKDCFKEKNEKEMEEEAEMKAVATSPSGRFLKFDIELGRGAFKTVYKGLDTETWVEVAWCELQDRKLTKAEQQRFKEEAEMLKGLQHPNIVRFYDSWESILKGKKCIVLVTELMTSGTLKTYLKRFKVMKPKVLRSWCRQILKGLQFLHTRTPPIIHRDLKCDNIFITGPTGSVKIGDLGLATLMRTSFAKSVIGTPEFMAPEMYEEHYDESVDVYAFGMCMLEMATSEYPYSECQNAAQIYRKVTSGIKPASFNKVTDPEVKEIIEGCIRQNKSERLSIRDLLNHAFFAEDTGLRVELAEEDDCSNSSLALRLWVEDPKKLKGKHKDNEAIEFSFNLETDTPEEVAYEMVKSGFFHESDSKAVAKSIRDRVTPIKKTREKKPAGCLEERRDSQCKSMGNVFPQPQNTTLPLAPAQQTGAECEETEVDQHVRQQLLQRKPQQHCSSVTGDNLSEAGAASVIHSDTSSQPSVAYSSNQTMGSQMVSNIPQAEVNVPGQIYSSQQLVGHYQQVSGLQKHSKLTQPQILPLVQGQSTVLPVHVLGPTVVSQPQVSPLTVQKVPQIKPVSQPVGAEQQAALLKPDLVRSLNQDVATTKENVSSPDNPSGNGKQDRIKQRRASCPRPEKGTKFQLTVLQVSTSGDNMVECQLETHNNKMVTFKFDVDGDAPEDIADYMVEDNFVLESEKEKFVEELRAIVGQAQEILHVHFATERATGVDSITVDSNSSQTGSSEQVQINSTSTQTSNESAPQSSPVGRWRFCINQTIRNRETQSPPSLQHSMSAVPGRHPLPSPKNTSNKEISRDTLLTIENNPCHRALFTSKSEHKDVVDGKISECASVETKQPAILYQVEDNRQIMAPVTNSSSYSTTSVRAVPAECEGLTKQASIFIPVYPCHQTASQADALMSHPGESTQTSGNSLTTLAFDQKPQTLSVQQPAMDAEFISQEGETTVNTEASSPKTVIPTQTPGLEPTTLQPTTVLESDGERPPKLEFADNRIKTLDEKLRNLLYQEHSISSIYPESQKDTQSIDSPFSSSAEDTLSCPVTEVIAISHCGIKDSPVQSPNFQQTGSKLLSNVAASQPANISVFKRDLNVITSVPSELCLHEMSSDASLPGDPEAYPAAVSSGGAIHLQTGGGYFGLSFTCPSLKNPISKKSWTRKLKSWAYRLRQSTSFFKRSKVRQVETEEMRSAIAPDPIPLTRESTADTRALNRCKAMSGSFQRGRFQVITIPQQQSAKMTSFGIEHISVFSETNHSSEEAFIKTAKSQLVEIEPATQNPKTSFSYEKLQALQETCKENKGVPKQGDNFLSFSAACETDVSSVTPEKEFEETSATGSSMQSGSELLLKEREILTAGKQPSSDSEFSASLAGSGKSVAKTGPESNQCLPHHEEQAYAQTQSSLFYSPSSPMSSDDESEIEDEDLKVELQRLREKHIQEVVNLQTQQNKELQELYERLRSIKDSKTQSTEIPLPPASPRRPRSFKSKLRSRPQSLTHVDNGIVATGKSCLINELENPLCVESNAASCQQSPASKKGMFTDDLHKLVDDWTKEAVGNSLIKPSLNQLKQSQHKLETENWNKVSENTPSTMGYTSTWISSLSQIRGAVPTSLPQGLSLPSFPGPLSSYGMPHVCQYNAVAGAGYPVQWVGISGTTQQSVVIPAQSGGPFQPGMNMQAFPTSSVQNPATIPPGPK

MASTL = biological target: T3, MASTL (Homo sapiens, UniProt Q96GX5); details: 1 μM; Run 1, Run 2
T3 sequence (Q96GX5 1-879): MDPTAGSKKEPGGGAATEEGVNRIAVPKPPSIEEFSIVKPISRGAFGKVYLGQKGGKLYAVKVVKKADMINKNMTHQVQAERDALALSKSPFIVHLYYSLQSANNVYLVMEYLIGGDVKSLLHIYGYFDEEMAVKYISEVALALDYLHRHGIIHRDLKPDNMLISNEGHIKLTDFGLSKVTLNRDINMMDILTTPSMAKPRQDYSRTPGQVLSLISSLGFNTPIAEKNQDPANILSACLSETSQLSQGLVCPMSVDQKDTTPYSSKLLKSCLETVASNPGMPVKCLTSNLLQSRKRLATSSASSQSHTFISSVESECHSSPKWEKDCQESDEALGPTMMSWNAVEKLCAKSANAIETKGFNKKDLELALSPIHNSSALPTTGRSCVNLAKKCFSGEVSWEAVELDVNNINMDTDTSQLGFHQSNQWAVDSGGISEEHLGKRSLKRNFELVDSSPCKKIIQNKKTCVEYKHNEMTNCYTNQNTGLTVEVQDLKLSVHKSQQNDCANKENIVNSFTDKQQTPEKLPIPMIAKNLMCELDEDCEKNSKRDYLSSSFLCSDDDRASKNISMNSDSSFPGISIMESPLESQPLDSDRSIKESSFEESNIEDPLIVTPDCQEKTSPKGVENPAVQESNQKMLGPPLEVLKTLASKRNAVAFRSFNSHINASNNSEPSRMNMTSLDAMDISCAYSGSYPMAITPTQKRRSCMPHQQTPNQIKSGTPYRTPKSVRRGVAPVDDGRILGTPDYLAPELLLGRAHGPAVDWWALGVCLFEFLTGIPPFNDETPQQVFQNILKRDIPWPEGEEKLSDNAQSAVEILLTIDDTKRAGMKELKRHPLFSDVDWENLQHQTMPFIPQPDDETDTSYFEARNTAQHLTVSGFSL

Chain of NEK7 (Q8TDX7 whole entry): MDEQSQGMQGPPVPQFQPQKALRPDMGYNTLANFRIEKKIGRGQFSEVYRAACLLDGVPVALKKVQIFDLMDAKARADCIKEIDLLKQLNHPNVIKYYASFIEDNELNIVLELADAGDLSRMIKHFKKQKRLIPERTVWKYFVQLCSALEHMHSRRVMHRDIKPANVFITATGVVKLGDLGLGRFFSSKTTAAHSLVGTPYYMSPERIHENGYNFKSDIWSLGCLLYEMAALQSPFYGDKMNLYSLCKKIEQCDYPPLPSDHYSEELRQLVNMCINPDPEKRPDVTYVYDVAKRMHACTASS

| Compound | % enzyme activity (NEK7) [%] | % enzyme activity (ZAK/MLTK) [%] | remaining activity at 1 µM (ZAK/MLTK) [%] | remaining activity at 1 µM (ITK) [%] | % enzyme activity (NEK9) [%] | % enzyme activity (WNK3) [%] | % enzyme activity (MASTL) [%] |
| --- | --- | --- | --- | --- | --- | --- | --- |
| COc1cc(-c2cncc(-c3ccc(N4CCN(C)CC4)cc3)c2C)cc(F)c1C(N)=O [Compound 26a, 2-Fluoro-6-methoxy-4-(4-methyl-5-(4-(4-methylpiperazin-1-yl)phenyl)pyridin-3-yl)benzamide] | 96.68 | 30.86 | 31.3 | 106 | 91.72 | 88.15 | 98.59 |
| COc1cc(-c2cncc(-c3ccc(N4C[C@@H](C)N(C)[C@@H](C)C4)cc3)c2C)cc(F)c1C(N)=O [Compound 26c, 2-Fluoro-6-methoxy-4-(4-methyl-5-(4-((3R,5S)-3,4,5-trimethylpiperazin-1-yl)phenyl)pyridin-3-yl)benzamide] | 97.32 | 46.59 | 46.6 | 102 | 93.51 | 92.59 | 100.30 |
